Type in all cases: cell-based, human
In one experiment the test system is ANGM-CSS. The experiment is described as follows: cell viability / cytotoxicity by WST-1 colorimetric assay in ANGM-CSS. The settings on record: alone. Here is the method:
(§1) The cell line ANGM-CSS and U118-MG were used, human glioblastoma multiforme (GBM) lines. The ANGM-CSS cell line (ECACC cat n°08040401) was supplied by Dr. Angelo Notarangelo, Laboratorio di Citogenetica, IRCCS Casa Sollievo della Sofferenza, San Giovanni Rotondo (FG), Italy. The U118-MG line was purchased from ATCC, Manassas, VA, USA. The culture medium consisted of DMEM:HAMS F12 (1:1) (Sigma-Aldrich) with the addition of 2mM of L-Glutamine (Sigma Aldrich), 10% Fetal Bovine Serum (FBS, Sigma-Aldrich), 100 units/ml penicillin and 100µg/ml streptomycin (P/S) at 37°C in an atmosphere with 5% CO2.
(§2) The cytotoxicity was evaluated via a colorimetric assay, using WST-1 (4-[3-(4-iodophenyl)-2-(4-nitrophenyl)-2H-5-tetrazolium]-1,3-benzene disulfonate) (Roche, Mannheim, Germany). The inhibition of the cell proliferation is expressed as a percentage of the absorbance at 450nm relative to the non-treated cells in culture. The absorbance was measured by an Enspire microplate reader (PerkinElmer, Wellesley, MA, USA).
(§3) The compound 1 was tested on the two cell lines of human glioblastoma multiforme ANGM-CSS and U118MG, which are resistant to temozolomide.
(Formazan colour is commonly taken as a measure of viable cells.)

For another experiment, the system named is U118-MG. The experiment is described as follows: cell viability / cytotoxicity by WST-1 colorimetric assay in U118-MG. The conditions noted are these: alone, 10µM and 100µM. Here is the method:
as §1, §2, §3

Another experiment deals with U87MG cells. In words: cell viability by MTS assay in U87MG cells. The conditions noted are these: 72 hours. Here is the method:
The human cells of glioblastoma multiforme U87MG were obtained from the national cancer research institute in Genoa (Italy) and were monitored to determine the DNA profiling. The U87MG cells were cultivated in RPMI medium with the addition of 10% FBS, 2 mM of L-glutamine, 100 U/ml of penicillin, […] of streptomycin and 1% of non-essential amino acids at 37°C in 5% CO2. The cells were used in the successive experiments up to the fourth detaching passage.
The U87MG cells were grown at 37°C in a humid atmosphere in the presence of 5% CO2. and were placed in a plate at a density of 3,000 cells/well. After 24 hours, the culture medium was replaced with fresh culture medium containing different concentrations of the compound 9 solubilized in DMSO. After 72 hours, the cell viability was assayed by means of MTS assay according to the manufacturer's instructions. […] The formazan formed is determined via reading of the absorbance at 490 nm measured with an automated plate reader (Victor Wallac 2, Perkin Elmer). […] The results were calculated by subtracting the mean background value from the values obtained from each evaluation and were expressed as a control percentage (non-treated cells). […] At the end of the treatments, the cell viability was determined by means of MTS assay.

Where a name gives a salt, the structure may show the parent alone.

As to `COc1cc2c(cc1OC)CN(CC(=O)Nc1ccc3c(c1)/C(=C/c1cccs1)C(=O)N3)CC2` [compound 1, N-[(3Z)-(2-oxo-3-(thiophene-2-ylmethylene)-2,3-dihydro-1H-indol-5-yl]-2-(6,7-dimethoxy-3,4-dihydroisoquinol-2-(1H)-yl)-acetamide hydrochloride], the results for the cell viability entry in the experiment on ANGM-CSS (10µM), in the experiment with ANGM-CSS (100 µM) and with U118-MG were “no significant effect on cell viability”, “significant reduction in cell viability” and “significant reduction of cell viability”, respectively.

On to `Cc1ccc(S(=O)(=O)Nc2ccc3c(c2)/C(=C/c2cnc[nH]2)C(=O)N3)cc1` [compound 9, N-[(3Z)-3-(1H-imidazol-5-ylmethylidene)-2-oxo-2,3-dihydro-1H-indol-5-yl]-4-methylbenzenesulfonamide], for which, in the experiment on U87MG cells (compound alone at 100 nM, 500 nM, 1 µM), the cell viability result is “inhibits cell viability, in a concentration-dependent way”. Besides, the minimal effective concentration with U87MG cells (Homo sapiens, U-87 MG, compound alone, read-out: concentration from which the effect on cell viability is significant) is not below 0.5 µM.

Source of the values: patent EP3204002B1, “PHARMACEUTICAL COMBINATION FOR THE TREATMENT OF TUMORS” (International Society for Drug Development S.r.l., priority 2014, dated 2016).
